Data taken from patent US9506068B2, “Pain treatment using ERK2 inhibitors” (Cornell University, priority 2008, dated 2016).
Entries after “also recorded” stand apart in the source; their conditions may differ.

Legend:
ERK1 [1] = experiment: Western blot of transfected HEK293 cells: ERK1; format: cell-based, human
Description: Separate cultures of an immortalized cell line of human embryonic kidney cells (HEK293) were transfected with three active siRNAs directed against human ERK2. […] The sequences of the three human ERK2 siRNAs (#1, #2, and #3) and the control mismatch siRNA are shown below. The siRNAs were expressed from the rAAV vector. Thus, to generate the siRNA #1, the DNA sequence of the sense strand […] NO:777) was linked to a spacer derived from an miRNA […] ID NO:766) at the 3' end, which was then linked to the corresponding antisense sequence […] NO:778)). Thus, the non-template strand sequence used in the expression cassette for the […] NO:777) siRNA will have the following sequence (SEQ ID NO:779)): [NT] This sequence was placed downstream of an RNA polymerase III (RNA pol III) promoter in the rAAV vector. The vector also contained 6 consecutive dTs in the non-template strand following the SEQ ID NO:779 sequence to stop the transcription.

[2] = test system: fusion mRNA of the ERK2 and the humanized Renilla luciferase (hRluc) gene; experiment: psiCHECK Dual Luciferase Reporter Assay; format: cell-based, mouse; settings: HEK 293 cells cotransfected with psiCHECK plasmid and rAAV plasmid; normalized to 100% of rAAV plasmid lacking shRNA (GFP); n=4
Description: FIGS. 1A-J illustrate expression of green fluorescent protein (GFP) and the knockdown of ERK2 mRNA in the mouse spinal cord dorsal horn (SCDH) at 3 weeks after the intraparenchymal injection of a neurotropic recombinant adeno-associated virus (rAAV) vector expressing ERK2 siRNA. […] Thus, the expression of GFP was not influenced by co-expression of the ERK2 siRNAs. […] Scale bar, 500 μm. In FIG. 1I, ERK2 mRNA expression was quantified from in situ images and plotted in the bar graph as the ratio of the integrated optical density of in situ labeling in the ipsilateral SCDH to that in the contralateral SCDH. Data are the mean±SEM (n=3). […] There was no significant difference in the ratio among the three active siRNA vectors. […] HEK 293 cells were cotransfected with the psiCHECK plasmid (which contains the ERK2-Renilla luciferase fusion gene and the firefly luciferase gene) and with a rAAV plasmid expressing a candidate ERK2 shRNA sequence. rAAV plasmids that yield active siRNAs reduce the expression of Renilla luciferase relative to firefly luciferase, leading to a reduction of the activity ratio. The assay results are the mean±SEM (n=4). The Renilla/firefly signal was normalized to a value of 100% from the results of a concurrent assay containing psiCHECK and a rAAV plasmid that lacked coding for a shRNA sequence (GFP). […]

ERK2 mRNA = experiment: Non-radioactive in situ hybridization of ERK2 mRNA in spinal cord dorsal horn after intraparenchymal vector injection; format: in vivo, mouse; settings: 3 weeks after intraparenchymal injection; ipsilateral vs contralateral; listed as MM
Protocol: (§1) The viral vectors, ERK2-5, 2-7, 2-8 and MM were micro-injected into the spinal cord dorsal horn (SCDH) as described by South et al. (South et al., 2003). The mice were anesthetized with ketamine/xylazine. A laminectomy was performed to remove part of the dorsal L2 and L3 spinous process and the lumbar area of spinal cord was exposed for intraparenchymal injection (IPI). Three unilateral injections of 1 μl (1-3×10^9 viral particles/μl) were administered 0.5-0.7 mm apart, at a depth of 0.3 mm from the dorsal border and 0.5 mm from the midline, using a glass pipette with a 40-μm-diameter tip attached to a 5 μl Hamilton syringe. The syringe was mounted on a microinjector (David Kopf Instruments, Tujunga, Calif.) attached to a stereotaxic unit (David Kopf Instruments). After the injection, the overlying muscles were closed with 5-0 chromic gut and the skins were closed with wound clips. […]
ERK2 mRNA expression in the SCDH was detected by non-radioactive in situ hybridization as described by (Garraway et al., 2007). […]
(§2) Fluorescent IHC images were captured by a Zeiss LSM 510 laser scanning confocal microscope. […] Quantitative analysis was performed by a blinded observer using Metamorph software (Universal Imaging, Downingtown, Pa.) as described previously (Garraway et al., 2007). […]

ERK2 = experiment: Western blot of spinal cord dorsal horn: ERK2 and pERK2; format: in vivo, mouse; settings: compared to animals that did not receive intraparenchymal injection of a vector
Protocol: as §1, with “syringe.” for “syringe. The syringe was mounted on a microinjector (David Kopf Instruments, Tujunga, Calif.) attached to a stereotaxic unit (David Kopf Instruments). After the injection, the overlying muscles were closed with 5-0 chromic gut and the skins were closed with wound clips.”
(§3) Animals were deeply anesthetized by isoflurane, decapitated and the lumbar spinal cord dorsal horn at the level of L4-L6 were rapidly dissected. […] The protein level of each sample was measured by the BioRad DC assay. […]
(§4) Membranes were incubated with rabbit anti-pERK1/2 antibody (1:1000; 07-362; Cell Signaling Technology, Inc.) in blocking solution overnight at 4° C., washed in TBS with 0.1% Tween-20 (TBST), then incubated with HRP-conjugated anti-rabbit IgG (1:1000, Pierce Biotechnology, Inc., Rockford, Ill.) in blocking solution for 1 hr. […] Ratios of intensity of pERK1/2 or ERK1/2 to β-actin were calculated, normalized to the control samples and subject to statistical analysis. […]

ERK1 [3] = experiment: Western blot of spinal cord dorsal horn: ERK1 and pERK1; format: in vivo, mouse; settings: compared to animals that did not receive intraparenchymal injection of a vector
Protocol: as §1, with “syringe.” for “syringe. The syringe was mounted on a microinjector (David Kopf Instruments, Tujunga, Calif.) attached to a stereotaxic unit (David Kopf Instruments). After the injection, the overlying muscles were closed with 5-0 chromic gut and the skins were closed with wound clips.”
as §3, §4

[4] = test system: spinal cord dorsal horn (SCDH); experiment: GFP immunolabeling after rAAV vector injection (extent and cell type of transduction); format: in vivo, mouse; settings: confocal fluorescent immunohistochemistry; NeuN, GFAP, OX42 markers
Protocol: The viral vectors, ERK2-5, 2-7, 2-8 and MM were micro-injected into the spinal cord dorsal horn (SCDH) as described by South et al. (South et al., 2003). The mice were anesthetized with ketamine/xylazine. A laminectomy was performed to remove part of the dorsal L2 and L3 spinous process and the lumbar area of spinal cord was exposed for intraparenchymal injection (IPI). Three unilateral injections of 1 μl (1-3×10^9 viral particles/μl) were administered 0.5-0.7 mm apart, at a depth of 0.3 mm from the dorsal border and 0.5 mm from the midline, using a glass pipette with a 40-μm-diameter tip attached to a 5 μl Hamilton syringe. The syringe was mounted on a microinjector (David Kopf Instruments, Tujunga, Calif.) attached to a stereotaxic unit (David Kopf Instruments). After the injection, the overlying muscles were closed with 5-0 chromic gut and the skins were closed with wound clips. Animals were allowed to recover for three weeks before undergoing behavioral tests, or sacrificed for histological and Western blot analysis.
as §2

C57BL/6 mice [5] = experiment: Motor function tests (surface righting, placing/stepping, grasping/climbing); format: in vivo, mouse; settings: after intraparenchymal injection of vector
Protocol: All behavioral testing was conducted in groups of 10 mice per treatment by a blinded observer. Motor function tests were performed before mechanical stimulus threshold or thermal paw withdrawal threshold were measured (Garraway et al., 2007). No deficits in reflexes for surface righting, placing/stepping and grasping/climbing were found in animals treated with either the control rAAV vector or rAAV viral vectors.

C57BL/6 mice [6] = experiment: Acute thermal paw withdrawal threshold; format: in vivo, mouse; settings: before vs. at least 3 weeks after vector administration, no CFA
Protocol: Thermal paw withdrawal threshold was assessed using a thermal nociceptive stimulus apparatus (Hargreaves et al., 1988). Prior to the test, the animals were allowed to acclimate for 30 min to the test chamber on a pre-heated glass plate maintained at 30° C. A radiant thermal stimulus (5.10 amps) was applied to the mid-plantar surface of the hind paw through the glass plate. The latency, in seconds, for the withdrawal of the paw from the heat source was determined automatically. If no response was elicited, the heat source was automatically shut off at 20 sec to prevent tissue injury. A minimum break of 5 min was allowed between each trial. Three to six trials were performed for each paw.

C57BL/6 mice [7] = experiment: Acute mechanical stimulus threshold (von Frey); format: in vivo, mouse; settings: before vs. at least 3 weeks after vector administration, no CFA
Protocol: Mechanical stimulus threshold to a non-noxious mechanical stimulus was determined by paw withdrawal to the application of a series of calibrated von Frey filaments to the surface of the hind paws. The animals were placed in a Plexiglas cage with mesh flooring suspended above the researcher and left to acclimate for 30 min. von Frey filaments were applied perpendicularly against the mid-plantar surface of the foot. The “up-down” method of Dixon (Chaplan et al., 1994) was used to determine the value at which paw withdrawal occurred 50% of the time, interpreted as the mechanical threshold.

[8] = test system: spinal cord dorsal horn (SCDH); settings: mouse, in vivo
Protocol: Mice were anesthetized with pentobarbital and then perfused transcardially with 4% paraformaldehyde (PFA) in phosphate buffered saline (PBS) with 1 mM NaF. Fifty mL of fixative was perfused over 5 min by using a peristaltic pump. The spinal cord was dissected and placed in 4% PFA for 1 hr before being transferred to 30% sucrose for cryoprotection for 72 hr. Lumbar spinal cord cryosections of 20-μm thick were obtained from a cryostat (Leica, Bannockburn, Ill.) for IHC and in situ hybridization.
For IHC, the spinal cord sections were incubated in blocking solution (3% normal goat serum, 0.1% Triton X-100 in Tris buffered saline) for 30 min. After washing in Tris buffered saline (TBS), sections were incubated with one or two of the following primary antibodies: rabbit anti-GFP (1:1000; Invitrogen-Molecular Probes Inc, Eugene, Oreg.), rabbit anti-phospho-ERK1/2 (1:1000; Cell Signaling Technology, Inc., Danvers, Mass.), mouse anti-NeuN (1:400; Millipore-Chemicon, Bedford, Mass.), rabbit anti-c-fos (1:2000, Santa Cruz Biotechnology, Santa Cruz, Calif.), rabbit anti-Dynorphin A(1:2000, Bachem, San Carlos, Calif.), mouse anti-GFAP (1:2000; Millipore-Chemicon) and rat anti-OX42 (1:1000, BD Biosciences, San Diego, Calif.) overnight in blocking solution at 4° C. […]

In the case of “siRNA #1: human ERK2 siRNA (1833-1851) GCAGGAGCUUGUGGAAAUAUU, expressed from the rAAV vector”, the ERK1 expression (ERK1 [1]) is reported as “without significantly changing”.

“mm: inactive control mismatch siRNA CCUCGUCAUAAUACUGGGUUU used in HEK293 cells (chemistry not given here)” was tested, and the “Renilla/firefly luciferase activity ratio” value [2] was “ineffective”, the “ERK2 mRNA level in the ipsilateral SCDH (in situ hybridization)” value (ERK2 mRNA) was “did not alter; also recorded: no change” and the “expression or phosphorylation of ERK2” value (ERK2) was “did not have any effect”. For the same substance, the “expression or phosphorylation of ERK1” value (ERK1 [3]) was “did not have any effect”, the “cellular localization of GFP immunolabeling” value [4] was “colocalized with NeuN” and the “animals with signs of motor deficits” value (C57BL/6 mice [5]) was “None”. For the same substance, the heat withdrawal latency (C57BL/6 mice [6]) was “No change”, the mechanical withdrawal threshold (C57BL/6 mice [7]) was “No change” and the “gliosis in the spinal cord dorsal horn” value [8] was “no evidence of gliosis”. For the same substance, the neuronal cell loss [8] was “no evidence of neuronal cell loss”.

For “siRNA #3: human ERK2 siRNA (357-375) GUGCUCUGCUUAUGAUAAUUU, expressed from the rAAV vector”, the ERK1 expression (ERK1 [1]) was “without significantly changing”.

For “siRNA #2: human ERK2 siRNA (884-902) GCUGCAUUCUGGCAGAAAUUU, expressed from the rAAV vector”, the ERK1 expression (ERK1 [1]) was “without significantly changing”.
